Data taken from patent US20160243011A1, “Formulations Comprising Idebenone, N-Acetyl-S-Farnesyl-L-Cysteine and Ergothioneine and Uses Thereof” (ELIZABETH ARDEN, INC., priority 2012, published 2016).

Key:
IL-6 [1] = assay: UVA induced IL-6 production in HDFs (ELISA); assay type: cell-based, Human; conditions: for IL-6 (% inh) / EPF Score: 1 μM; for IL-6 (% inh) / inhibition at 1 µM: 6 hours pre-treatment, HDF, UVA 12.5 J/cm^2, 24 hours; for EPF Score: Example 9 (9A), IL-6; for inhibition at 1 µM: Homo sapiens, light or radiation study, read-out: IL-6 (% inh)
Protocol: (§1) In order to evaluate the impact of UV-induced inflammation in human skin, primary cell monolayer cultures were exposed to different types of UV radiation, i.e. UVB and UVA. Primary Human Dermal Fibroblasts (HDFs) were irradiated with UVA (350 nm) and Normal Human Epidermal Keratinocytes cells (NHEKs) with UVB (305 nm). HDFs were cultured in Dulbecco's Modified Eagle Medium (DMEM) basal medium (Life Technologies, Grand Island, N.Y.), supplemented with 10% v/v fetal bovine serum (FBS), (referred to as supplemented media) at 37° C. with 5% CO2 NHEKs were cultured in Epilife® basal medium (Life Technologies, Grand Island, N.Y.), supplemented with 60 μM calcium, 0.2% v/v bovine pituitary extract (BPE), 5 μg/ml bovine insulin, 0.18 μg/ml hydrocortisone, 5 μg/ml bovine transferrin, 5 μg/ml, 0.2 ng/ml human epidermal growth factor (referred to as supplemented media) at 37° C. with 5% CO2.
(§2) In order to avoid possible immunomodulating effects of these agents during compound treatments, cells were kept in DMEM or Epilife® basal medium without growth supplements (referred to as depleted media). Cells were plated at a concentration of 3.8×10^4 cells/well in supplemented media in 24-well plates. After cells were allowed to adhere (24 hours), media was changed to depleted media.
(§3) For “blend” testing, a formulation of idebenone, Arazine™ and ergothioneine (1:1:1 molar ratio) was prepared before mixing to medium. Six hours after pre-treatments, to induce a pro-inflammatory response, pre-treatment media was removed and replaced with phosphate-buffered saline (PBS).
(§4) Immediately after UV irradiation, cells were placed in fresh depleted medium for 24 hours. Cell cultures were examined for viability by the reduction of 3-(4,5-dimethylthiazol-2-yl)-5-(3-carboxymethoxyphenyl)-2-(4-sulfophenyl)-2H-tetrazolium (MTS assay; Promega, Madison, Wis.) to determine the percentage of viable cells after compound and UV irradiation. Media supernatants were harvested from non-irradiated and UV irradiated cells and assayed by enzyme-linked immunosorbent assays (ELISA) for the stimulated release of pro-inflammatory mediators. NHEKs were assayed for concentrations of Interleukin-6 (IL-6) and Tumor Necrosis Factor-alpha (TNF-alpha) using appropriate protein standards (BD Biosciences; San Jose, Calif.). HDFs were assayed for concentrations of IL-6 (BD Biosciences) or pro-Matrix Metalloproteinase-1 (pro-MMP-1) using appropriate protein standards (R&D Systems; Minneapolis, Minn.).
(§5) To test these anti-oxidants for anti-inflammatory and anti-aging properties, primary Human Dermal Fibroblasts (HDFs) were cultured in the presence of each ingredient for 6 hours. […] Media supernatants were collected after 24 hours and analyzed by ELISA for IL-6 and pro-MMP-1. All ingredients were tested at 1 μM.

EpiDerm™ inserts = assay: UVB induced sun burn cell (SBC) formation using EpiDerm; assay type: cell-based; conditions: for SBC % inhibition / inhibition at 1000 µM: 1 mM topical, 6 hours, UVB 200 mJ/cm^2, fixed after 24 hours; for EPF Score: Example 7, 1 mM; for inhibition at 1000 µM: light or radiation study
Protocol: EpiDerm™ inserts (MatTek®) were topically treated in the presence of each test ingredient for 6 hours, after which they were removed, inserts were irradiated with 200 mJ/cm^2 UVB, and they fixed for H&E staining after 24 hours. The number of sun burn cells (SBCs) (white arrows) was counted. All compounds were tested at 1 mM.

[2] = Radical scavenging capacity (oxidation of ABTS by metmyoglobin); assay type: biochemical; conditions: for EPF Score: Example 3, scores: 10^−3 M=5, 10^−4 M=15, 10^−5 M=20; for Effective and oxidant conc: lowest effective concentration, OD 750 nm
From the text: This assay analyzed the overall antioxidant capacity of test ingredients for the ability to inhibit the oxidation of 2,2′-azino-bis(3-ethylbenzothiazoline-6-sulphonic acid) (ABTS). to ABTS.^+ by metmyoglobin. The testing involved the suppression of optical density (OD) at 750 nm to a degree that is proportional to an effective oxidation inhibition. The EPF scoring system was based on the lowest effective concentration as previously described by MacDaniel et al., 2005 and scores were assigned as follows: 10^−3 M=5; 10^−4 M=15; 10^−5 M=20.

Rat liver microsomes = assay: Microsome pro-oxidative system measuring secondary oxidation by-products (TBARS); assay type: biochemical; conditions: 100 μM; for Lipid MDA % protection: NADPH/ADP/Fe^3+ oxidative system, 24 hours; for EPF Score: Example 5
Protocol: Rat liver microsomes were oxidized with or without test ingredients at 0.1 mM using a NADPH/ADP/Fe^3+ oxidative system. Secondary oxidation products were quantified after 24 hours incubation by measuring MDA equivalents directly utilizing the production of Thiobarbituric acid-reactive substances (TBARS). Results are expressed as the change in optical density (OD) at 532 nm to a degree that is proportional to an effective oxidation inhibition based on 1,1,3,3-tetraethoxypropane as MDA-TBA production standard.

IL-6 [3] = assay: UVB induced IL-6 release in NHEKs (ELISA); assay type: cell-based, Human; conditions: for IL-6 (% inh) / EPF Score: 1 μM; for IL-6 (% inh) / inhibition at 1 µM: 6 hours pre-treatment, NHEK, UVB 25 mJ/cm2, 24 hours; for EPF Score: Example 8 (8A), IL-6; for inhibition at 1 µM: Homo sapiens, light or radiation study, read-out: IL-6 (% inh)
Protocol: as §1, §2, §3, §4
(§6) Control groups contained non-irradiated cells. Twenty four hours later, cell medium were assayed for the presence of pro-inflammatory mediators by ELISA.
(§7) To test these anti-oxidants for anti-inflammatory properties, primary Human Epidermal Keratinocytes (NHEKs) were cultured in the presence of each ingredient for 6 hours. Ingredients were then removed and cells were irradiated with 25 mJ/cm2 UVB. Media supernatants were collected after 24 hours and analyzed by ELISA for IL-6 and TNF-α. All ingredients were tested at 1 μM.

[4] = tested on: Primary Human Epidermal Keratinocytes (NHEKs); assay: UVB induced DNA damage (thymine dimer formation); assay type: cell-based; conditions: 1 μM, 6 hours pre-treatment; UVB 200 mJ/cm^2
Protocol: Primary Human Epidermal Keratinocytes (NHEKs) were cultured in the presence of each test ingredient (1 μM) for 6 hours and later removed prior to UVB irradiation (200 mJ/cm^2). Cells were fixed after 1 hour and stained with anti-thymine dimer antibody. Positive rounded stained cells were counted using a fluorescence microscope.

Human LDL = assay: LDL pro-oxidative system measuring primary oxidation by-products; assay type: biochemical; conditions: 100 μM; for Lipid hydrogen-peroxide % protection: CuSO4 oxidative system, 24 hours; for EPF Score: Example 4
Protocol: Human LDL was oxidized with or without 0.1 mM materials under a CuSO4 oxidative system in Ham's F-10 medium.

[5] = Total Environmental Protection Factor (EPF) score; conditions: 180 point scoring system (20 points for each endpoint measured)
TNFα = assay: UVB induced TNFα release in NHEKs (ELISA); assay type: cell-based, Human; conditions: for TNFα (% inh) / EPF Score: 1 μM; for TNFα (% inh) / inhibition at 1 µM: 6 hours pre-treatment, NHEK, UVB 25 mJ/cm2, 24 hours; for EPF Score: Example 8 (8B), TNFα; for inhibition at 1 µM: Homo sapiens, light or radiation study, read-out: TNFα (% inh)
Protocol: as §1, §2, §3, §4, §6, §7

pro-MMP-1 = assay: UVA induced pro-MMP-1 production in HDFs (ELISA); assay type: cell-based, Human; conditions: for MMP-1 (% inh) / EPF Score: 1 μM; for MMP-1 (% inh) / inhibition at 1 µM: 6 hours pre-treatment, HDF, UVA 12.5 J/cm^2, 24 hours; for EPF Score: Example 9 (9B), MMP-1; for inhibition at 1 µM: Homo sapiens, light or radiation study, read-out: MMP-1 (% inh)
Protocol: as §1, §2, §3, §4, §5

[6] = tested on: Primary Human Epidermal Keratinocytes (NHEKs); assay: UVB induced DNA damage (thymine dimer formation); assay type: cell-based; conditions: Example 6; 1 μM

Molecule | IL-6 (% inh) (IL-6 [1]) [%] | EPF Score (IL-6 [1]) | EPF Score (EpiDerm™ inserts) | EPF Score [2] | Effective and oxidant conc [2] [mM] | Lipid MDA % protection (Rat liver microsomes) [%] | EPF Score (Rat liver microsomes) | EPF Score (IL-6 [3]) | DNA damage % protection [4] [%] | Lipid hydrogen-peroxide % protection (Human LDL) [%] | EPF Score (Human LDL) | Total EPF score (TTL) [5] | EPF Score (TNFα) | EPF Score (pro-MMP-1) | inhibition at 1 µM (IL-6 [1]) [%] | inhibition at 1000 µM (EpiDerm™ inserts) [%] | EPF Score [6] | inhibition at 1 µM (IL-6 [3]) [%] | inhibition at 1 µM (TNFα) [%] | inhibition at 1 µM (pro-MMP-1) [%] | further results
O=C(O)CCCC[C@@H]1CCSS1 (racemic) [Lipoic acid] | 62 | 13 | 8 | 5 | >3 | 25 | 7 | 14 | 13 | 5 | 2 | 94 | 14 | 16 | – | – | – | – | – | – | SBC % inhibition (EpiDerm™ inserts): 27%; IL-6 (% inh) (IL-6 [3]): 46%; TNFα (% inh) (TNFα): 52%; MMP-1 (% inh) (pro-MMP-1): 80%
COc1cc(/C=C/C(=O)O)ccc1O [Ferulic acid] | – | 13 | 18 | 20 | 0.03 | 63 | 17 | 16 | 14 | 94 | 20 | 130 | 14 | 7 | 62 | 64 | 5 | 54 | 55 | 37 | –
c1coc(CNc2ncnc3[nH]cnc23)c1 [Kinetin] | – | 15 | 18 | – | – | 0 | 0 | 16 | 14 | 1 | 1 | – | 10 | 2 | – | 62 | – | – | – | – | –
COC1=C(OC)C(=O)C(C/C=C(\C)CC/C=C(\C)CC/C=C(\C)CC/C=C(\C)CC/C=C(\C)CC/C=C(\C)CC/C=C(\C)CC/C=C(\C)CC/C=C(\C)CCC=C(C)C)=C(C)C1=O [Ubiquinone] | – | 17 | 13 | 5 | >3 | 62 | 17 | 10 | 9 | 14 | 5 | 87 | 12 | 5 | 79 | 46 | 3 | 34 | 48 | 26 | –
O=C1O[C@H]([C@@H](O)CO)C(O)=C1O [Vitamin C, ascorbic acid] | – | 17 | 9 | 20 | 0.03 | 7 | 2 | 4 | 16 | 0 | 1 | 73 | 9 | 3 | 81 | 31 | 6 | 13 | 36 | 13 | –
tocopherol [Vitamin E] | 82 | 18 | 6 | 20 | 0.06 | 45 | 12 | 4 | 9 | 56 | 12 | 95 | 4 | 16 | – | – | 3 | – | – | – | SBC % inhibition (EpiDerm™ inserts): 21%; IL-6 (% inh) (IL-6 [3]): 12%; TNFα (% inh) (TNFα): 16%; MMP-1 (% inh) (pro-MMP-1): 80%
